In patent US20150306107A1, “SAA Derivative Compound Restores eNOS And Inhibits Oxidative Stress-Induced A Diseases In Hypoxia” (JANSFAT BIOTECHNOLOGY CO., LTD., priority 2014, published 2015):
Counter-ions that a name gives are not always drawn.

Columns and labels:
eNOS [1] = assay: Western blotting of eNOS expression in isolated rat pulmonary artery ring, short-term (acute) hypoxia or normoxia; assay type: cell-based; settings: acute hypoxia, Normoxia 100, Hypoxia 65.3 ± 7.8
Experimental: (§1) In our in vitro short-term experiment, isolated rat pulmonary artery was grown under normoxia (20% O2) or hypoxia (1% O2) at 37° C. for 24 hrs as was previously done (Wu BN, et al. Int J Immunopathol Pharmacol 24:925, 2011). The heart weight and body weight ratio (HW/BW) of the rats treated with one of SPAAX-1, SPAAX-1 RX complex, Sildenafil or Sildenafil RX complex each measured on the 21st hypoxic day. All animal care and the experimental protocols of this study were approved by the Animal Care and Use Committee of the Kaohsiung Medical University. Male Wistar rats (200-250 g), provided by the National Laboratory Animal Breeding and Research Center (Taipei, Taiwan), were housed under constant temperature and controlled illumination. Food and water were available ad libitum.
(§2) Whole right lung tissues of hypoxia-treated and untreated rats were isolated and cut into small strips and placed into an extraction buffer (Tris 10 mM, pH 7.0, NaCl 140 mM, PMSF 2 mM, DTT 5 mM, NP-40 0.5%, pepstatin A 0.05 mM and leupeptin 0.2 mM) for protein extraction, and then centrifuged at 12,500 g for 30 min. To measure the expression levels of the proteins, the total proteins were extracted and Western blotting analysis was performed as described previously (Bivalacqua T J, et al., 2013, TJ PLoSONE 8: e68028. doi:10.1371/journal. pone.0068028). Briefly, the protein extract was boiled to a ratio of 4:1 with a sample buffer (Tris 100 mM, pH 6.8, glycerol 20%, SDS 4% and bromophenol blue 0.2%). Electrophoresis was performed using 10% SDS-polyacrylamide gel (2 hr, 100 V, 40 mA, […] protein per lane). Separated proteins were transferred to PVDF membranes treated with 5% fat-free milk powder to block the nonspecific IgGs (90 min, 100 V) and incubated for one hour with a specific protein antibody. The blot was then incubated with anti-mouse or anti-goat IgG linked to alkaline phosphatase (1:1000) for 1 hr. Immunoreactive bands were visualized using horseradish peroxidase-conjugated secondary antibodies and subsequent electrochemiluminescence (ECL) detection (GE Healthcare Bio-Sciences Corp., Piscataway, N.J., U.S.A.). Mouse or rabbit monoclonal antibody of eNOS (Upstate, N.Y., U.S.A.), sGCα (Sigma-Adrich, CA, U.S.A., sGCβ (Santa Cruz, Calif., U.S.A.), PDE-5A (BD Tansduction, San Jose, Calif., U.S.A.), PKG (Calbiochem, San Diego, Calif., U.S.A.) ROCKII (Upstate, N.Y., U.S.A.), RhoA (Santa Cruze, Calif., U.S.A.) and the loading control protein β-actin (Sigma-Adrich, MO, U.S.A.) were used in our Western blot analysis.
(§3) The Western blotting analysis measurements were performed as per lung tissue.

VEGF [2] = assay: Western blotting of VEGF expression in isolated rat pulmonary artery ring, short-term (acute) hypoxia; assay type: cell-based
Experimental: as §1, §2, §3

ROCK II [3] = assay: Western blotting of ROCK II expression in isolated rat pulmonary artery ring, short-term (acute) hypoxia or normoxia; assay type: cell-based; settings: acute hypoxia, Normoxia 100, Hypoxia 560 ± 21
Experimental: as §1, §2, §3

eNOS [4] = assay: Western blotting of eNOS expression in rat carvenosus strip, acute hypoxia; assay type: cell-based; parameters: unit not given here
VEGF [5] = assay: Western blotting of VEGF expression in rat carvenosus strip, acute hypoxia; assay type: cell-based; parameters: unit not given here
ROCK II [6] = assay: Cigarette smoking-induced Rho/ROCK activation of rat pulmonary artery ring; assay type: in vivo; settings: Intraperitoneal (100 mg/kg) 1 h prior to smoke exposure, Non-Smoking control 100, Smoking 530 ± 34
Experimental: Intraperitoneal SAA complex (100 mg/kg in 200 μl of the solution) or 200 μl of saline (control) were given to animals through intraperitoneal injection 1 h prior to smoke exposure.
as §2

ROCK II [7] = assay: Streptozotocin (STZ) induced RhoA/ROCKII activation of rat carvenosa tissue; assay type: in vivo; settings: STZ model; 2.5 mg/kg; Control 100, STZ 142 ± 28
Experimental: (§4) Electrophoresis was performed using 10% SDS-polyacrylamide gel (2 hr, 100 V, 40 mA, […] protein per lane). Separated proteins were transferred to PVDF membranes treated with 5% fat-free milk powder to block the nonspecific IgGs (90 min, 100 V) and incubated for one hour with a specific protein antibody. The blot was then incubated with anti-mouse or anti-goat IgG linked to alkaline phosphatase (1:1000) for 1 hr. Immunoreactive bands were visualized using horseradish peroxidase-conjugated secondary antibodies and subsequent electrochemiluminescence (ECL) detection (GE Healthcare Bio-Sciences Corp., Piscataway, N.J., U.S.A.). Mouse or rabbit monoclonal antibody of eNOS (Upstate, N.Y., U.S.A.), sGCα (Sigma-Adrich, CA, U.S.A., sGCβ (Santa Cruz, Calif., U.S.A.), PDE-5A (BD Tansduction, San Jose, Calif., U.S.A.), PKG (Calbiochem, San Diego, Calif., U.S.A.) ROCKII (Upstate, N.Y., U.S.A.), RhoA (Santa Cruze, Calif., U.S.A.) and the loading control protein β-actin (Sigma-Adrich, MO, U.S.A.) were used in our Western blot analysis.

eNOS [8] = assay: Streptozotocin (STZ) induced eNOS down-regulation of rat carvenosa tissue; assay type: in vivo; settings: STZ model; 2.5 mg/kg; Control 100, STZ 60 ± 7.3
Experimental: as §4

ROCK II [9] = assay: Cigarette smoking-induced Rho/ROCK activation of rat pulmonary artery ring; assay type: in vivo; settings: Nebulization (2.5 mM), Non-Smoking control 100, Smoking 540 ± 28

SMILES | eNOS expression, Pulmonary Artery Ring (eNOS [1]) | VEGF expression, Pulmonary Artery Ring (VEGF [2]; Normoxia 100, Hypoxia 175 ± 14) | ROCK II expression, Pulmonary Artery Ring (ROCK II [3]) | eNOS expression, Carvenosus (eNOS [4]; Normoxia 100, Hypoxia 62.4 ± 5.5) | VEGF expression, Carvenosus (VEGF [5]; Normoxia 100, Hypoxia 170 ± 15) | ROCK II of pulmonary artery ring (ROCK II [6]) | ROCK II, Carvanosus tissue (ROCK II [7]) [%] | eNOS, Carvanosus tissue (eNOS [8]) [%] | ROCK II of pulmonary artery ring (ROCK II [9]) | eNOS expression, Pulmonary Artery Ring (eNOS [1]; listed as 1007) | VEGF expression, Pulmonary Artery Ring (VEGF [2]; Normoxia 100, Hypoxia 175 ± 14, listed as 1007) | ROCK II expression, Pulmonary Artery Ring (ROCK II [3]; listed as 1007) | eNOS expression, Carvenosus (eNOS [4]; Normoxia 100, Hypoxia 62.4 ± 5.5, listed as 1007) | VEGF expression, Carvenosus (VEGF [5]; Normoxia 100, Hypoxia 170 ± 15, listed as 1007)
CCCc1nn(C)c2c(=O)[nH]c(-c3cc(S(=O)(=O)N4CCN(C)CC4)ccc3OCC)nc12 [Reagent 1004, Sildenafil citrate complex, reference compound] | 132 ± 6.6 | 110 ± 3.8 | 205 ± 8.5 | 125 ± 6.9 | 105 ± 9.2 | 76 ± 6.8 | 44 ± 3.8 | 74 ± 6.8 | 64 ± 3.8 | – | – | – | – | –
CCCc1nn(C)c2c(=O)[nH]c(-c3cc(S(=O)(=O)N4CCN(C)CC4)ccc3OCC)nc12.O=C1OC(C(O)CO)C(O)=C1O [Reagent 1007, Sildenafil L-ascorbate complex] | – | – | – | – | – | 84 ± 8.2 | 38 ± 5.1 | 84 ± 8.2 | 66 ± 5.1 | 160 ± 5.8 | 92 ± 6.4 | 190 ± 7.7 | 142 ± 6.9 | 94 ± 6.8
